Measured values as given in patent US8476484B2, “Transgenic clawed frog embryos and use thereof as detectors of endocrine disrupters in the environment” (Centre National de la Recherche Scientifique (CNRS), priority 2002, dated 2013).
“Also recorded” adds a separate entry of the source.

Assays:
[1] = system: DR4(X3)-GFP construct (consensus TRE); conditions: thyroid hormone 10^-8 M in the water of the aquarium; FIG. 8
Protocol: The germinal transgenesis is carried out according to the protocol described by Kroll and Amaya (1996).

[2] = system: TRE-tk-EGFP construct (rat malic enzyme TRE); test: Somatic transgenesis in xenopus dorsal muscle with TRE-tk-EGFP; format: in vivo; conditions: T3 10 nM vs -T3; detected four days later; FIG. 7
Protocol: FIG. 7: Somatic transgenesis by injection, into the dorsal muscle of xenopus, of the construct TRE-tk-EGFP. The animals are transfected by injection into the dorsal muscle of […] of the construct TRE-tk-EGFP. The animals are then treated for 48 hours in the presence (+T3 10 nM) or in the absence (−T3) of T3 thyroid hormone. […] The somatic transgenesis is carried out either: • by injection of 1 μl of naked DNA into the dorsal muscle of the embryo. The DNA concentration is 100 ng/μl to 5 μg/μl in 0.07 M NaCL; • by microinjection of 1 μl of DNA/PEI (polyethyleneimine) into the brain of the embryo. The DNA concentration is between 50 and 500 ng/μl in 5% glucose. 3.3. The TRE-tk-EGFP construct was injected into the dorsal muscle of a xenopus embryo ([…]). Half the animals are treated with T3 thyroid hormone at 10 nM.

[3] = system: xenopus stromelysin 3 promoter (several TREs) coupled to luciferase in XTC cells; test: XTC cell transfection with the stromelysin 3/luciferase construct; format: cell-based; conditions: T3 10^-8 M in culture medium vs absence of T3 (basal level), FIG. 4
Protocol: The construct is transferred into XTC cells by complexing the DNA with PEI (22 kDA, at 6 equivalents), the transfected cells are cultured in the presence (10^−8 M) or in the absence (−T3) of T3 thyroid hormone.
The transgenic constructs are tested in XTC xenopus cells in culture.
The XTC cells are obtained from carcasses of xenopus tadpoles just before metamorphosis (Pudney et al., 1973). The cells are cultured at ambient temperature, for up to 20 passages.
The cells are transfected by complexing the DNA with 22 kDa polyethyleneimine (PEI) at 6 equivalents (Ouatas et al., 1998).
The protocol makes it possible to rapidly verify the constructs and thus to verify that said constructs respond correctly to the substances, such as the T3 thyroid hormone when it is injected into the cell culture medium.

[4] = system: TRE-tk-luciferase construct (rat malic enzyme TRE); test: Somatic transgenesis with TRE-tk-luciferase in dorsal muscle of pretreated xenopus tadpoles; format: in vivo; conditions: tadpoles pretreated with perchlorate and T3 10^-11 M; then T3 10^-8 M for 48 hours vs control; FIG. 6
Protocol: FIG. 6: Somatic transgenesis by injection, into the dorsal muscle of pretreated xenopus animals, of the construct TRE-tk-luciferase. The animals are pretreated for 48 hours with 10^−11 M of T3 thyroid hormone, and then rinsed for 24 hours. The animals are then transfected by injection into the dorsal muscle of 1 mg/animal of the construct TRE-tk-luciferase. The animals are then treated for 48 hours (10^−8 M) or in the absence (−T3) of thyroid hormone. Two days after treatment, the luciferase expression is measured. […] According to an alternative method, the transgenic animals according to the invention are pretreated with perchlorate for one month at 1 g/l, and are then sensitized with the test compound, such as the T3 hormone (10^−11 M), for 18 to 48 hours without food. The animals are then washed in a medium containing no T3 and are fed for 36 hours. The construct (for example TRE-tk-luciferase) is injected into the dorsal muscle of the xenopus embryo (1 mg/animal). Out of the 24 tadpoles that were pretreated and then subjected to somatic transgenesis, twelve tadpoles are treated for 48 hours with T3 thyroid hormone at 10^−8 M; the other twelve tadpoles that remain serve as a control.

[5] = system: TRE-tk-luciferase construct (rat malic enzyme TRE); test: Somatic transgenesis in xenopus dorsal muscle with TRE-tk-luciferase; format: in vivo; conditions: T3 10^-8 M vs -T3; measured four days after treatment; FIG. 5
Protocol: The somatic transgenesis is carried out either: • by injection of 1 μl of naked DNA into the dorsal muscle of the embryo. The DNA concentration is 100 ng/μl to 5 μg/μl in 0.07 M NaCL; • by microinjection of 1 μl of DNA/PEI (polyethyleneimine) into the brain of the embryo. The DNA concentration is between 50 and 500 ng/μl in 5% glucose. 3.1. […] 3.2.

expression of the reporter protein (luciferase) [4]: much greater expression
expression of the reporter protein (luciferase) [5]: much greater expression
Compound: N[C@@H](Cc1cc(I)c(Oc2ccc(O)c(I)c2)c(I)c1)C(=O)O [T3 thyroid hormone, Tri-iodothyronine]
emission of fluorescence (GFP) [1]: emission of fluorescence throughout the nervous system and in the limb buds
expression of the reporter protein (EGFP) [2]: much greater expression; also recorded: bioluminescence is visible in the cells of the treated animal
expression of the luciferase reporter protein [3]: greater expression
